Assay results taken from PMC2193707 (The Journal of Experimental Medicine, 2002).

How the values were obtained:
mCD22d1–3-Fc = target: T1, mCD22d1–3-Fc (Mus musculus, UniProt P35329); test: hapten inhibition of […]-Fc-chimera binding to fixed target cells
T1 sequence (P35329 22-347 limits assumed): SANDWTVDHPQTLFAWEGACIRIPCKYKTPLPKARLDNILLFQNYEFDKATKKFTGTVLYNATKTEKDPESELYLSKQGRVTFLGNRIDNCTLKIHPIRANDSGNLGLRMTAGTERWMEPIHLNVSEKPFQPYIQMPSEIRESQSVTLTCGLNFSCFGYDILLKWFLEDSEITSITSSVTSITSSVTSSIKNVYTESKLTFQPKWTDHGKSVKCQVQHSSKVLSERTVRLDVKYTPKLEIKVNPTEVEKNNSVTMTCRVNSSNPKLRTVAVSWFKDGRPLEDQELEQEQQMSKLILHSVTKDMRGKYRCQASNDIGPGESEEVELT

[1] = target: T2, hCD22 (cellular CD22 on Daudi cells) (Homo sapiens, UniProt P20273); test: flow cytometry, inhibition of NeuGc2,6-PAA-bio probe staining; assay type: cell-based; conditions: sialidase-treated Daudi cells; preincubation on ice 10 min
T2 sequence (P20273 20-847): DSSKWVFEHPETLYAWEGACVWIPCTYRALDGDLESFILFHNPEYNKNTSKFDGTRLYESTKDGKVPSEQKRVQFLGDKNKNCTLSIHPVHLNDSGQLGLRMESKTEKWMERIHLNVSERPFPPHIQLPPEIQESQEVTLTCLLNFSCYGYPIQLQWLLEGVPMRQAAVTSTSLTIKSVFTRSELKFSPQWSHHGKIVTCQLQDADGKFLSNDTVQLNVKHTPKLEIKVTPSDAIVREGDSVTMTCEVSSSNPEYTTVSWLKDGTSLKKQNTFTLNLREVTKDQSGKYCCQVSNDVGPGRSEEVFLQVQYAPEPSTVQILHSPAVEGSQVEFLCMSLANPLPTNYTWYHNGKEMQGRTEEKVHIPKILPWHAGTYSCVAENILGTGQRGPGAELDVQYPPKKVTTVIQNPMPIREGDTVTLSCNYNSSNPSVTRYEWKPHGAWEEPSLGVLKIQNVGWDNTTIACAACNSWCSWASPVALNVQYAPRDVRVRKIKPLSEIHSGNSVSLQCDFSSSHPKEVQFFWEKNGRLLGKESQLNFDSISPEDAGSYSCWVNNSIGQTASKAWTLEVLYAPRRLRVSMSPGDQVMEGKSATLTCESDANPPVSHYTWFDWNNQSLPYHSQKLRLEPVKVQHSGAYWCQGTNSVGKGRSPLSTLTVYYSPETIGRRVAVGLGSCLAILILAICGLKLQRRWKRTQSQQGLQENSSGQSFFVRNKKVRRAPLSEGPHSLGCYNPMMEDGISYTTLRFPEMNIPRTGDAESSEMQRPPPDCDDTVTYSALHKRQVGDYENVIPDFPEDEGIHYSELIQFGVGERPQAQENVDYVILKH

hCD22d1–3-Fc = target: T3, hCD22d1–3-Fc (Homo sapiens, UniProt P20273); test: hapten inhibition of […]-Fc-chimera binding to fixed target cells
T3 sequence (P20273 20-330 limits assumed): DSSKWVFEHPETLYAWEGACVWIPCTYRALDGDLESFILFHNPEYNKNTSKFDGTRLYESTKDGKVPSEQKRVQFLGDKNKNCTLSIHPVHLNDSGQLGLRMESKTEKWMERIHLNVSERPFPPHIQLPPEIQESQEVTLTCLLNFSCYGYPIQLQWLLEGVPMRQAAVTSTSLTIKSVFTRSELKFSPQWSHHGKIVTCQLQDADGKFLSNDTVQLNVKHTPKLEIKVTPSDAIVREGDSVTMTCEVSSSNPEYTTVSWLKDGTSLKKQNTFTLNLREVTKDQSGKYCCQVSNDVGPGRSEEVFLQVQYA

mSnd1–3-Fc = mSnd1–3-Fc (Mus musculus, UniProt Q62230); test: as above
mSnd1–3-Fc, sequence (Q62230 20-325 limits assumed): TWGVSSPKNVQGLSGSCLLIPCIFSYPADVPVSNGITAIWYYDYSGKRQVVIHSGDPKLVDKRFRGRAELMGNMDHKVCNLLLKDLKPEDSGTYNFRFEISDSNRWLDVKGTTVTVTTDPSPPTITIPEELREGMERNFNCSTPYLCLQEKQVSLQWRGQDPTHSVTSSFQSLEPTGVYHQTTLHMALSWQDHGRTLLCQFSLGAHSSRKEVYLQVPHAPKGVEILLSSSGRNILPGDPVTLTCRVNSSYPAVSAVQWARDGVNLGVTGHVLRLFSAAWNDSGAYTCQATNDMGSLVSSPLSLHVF

[2] = target: T4, mCD22 (cellular CD22 on mouse B cells) (Mus musculus, UniProt P35329); test: flow cytometry, inhibition of NeuGc2,6-PAA-bio probe staining; assay type: cell-based; conditions: sialidase-treated mouse B cells (B220+); preincubation on ice 10 min
T4 sequence (P35329 22-868): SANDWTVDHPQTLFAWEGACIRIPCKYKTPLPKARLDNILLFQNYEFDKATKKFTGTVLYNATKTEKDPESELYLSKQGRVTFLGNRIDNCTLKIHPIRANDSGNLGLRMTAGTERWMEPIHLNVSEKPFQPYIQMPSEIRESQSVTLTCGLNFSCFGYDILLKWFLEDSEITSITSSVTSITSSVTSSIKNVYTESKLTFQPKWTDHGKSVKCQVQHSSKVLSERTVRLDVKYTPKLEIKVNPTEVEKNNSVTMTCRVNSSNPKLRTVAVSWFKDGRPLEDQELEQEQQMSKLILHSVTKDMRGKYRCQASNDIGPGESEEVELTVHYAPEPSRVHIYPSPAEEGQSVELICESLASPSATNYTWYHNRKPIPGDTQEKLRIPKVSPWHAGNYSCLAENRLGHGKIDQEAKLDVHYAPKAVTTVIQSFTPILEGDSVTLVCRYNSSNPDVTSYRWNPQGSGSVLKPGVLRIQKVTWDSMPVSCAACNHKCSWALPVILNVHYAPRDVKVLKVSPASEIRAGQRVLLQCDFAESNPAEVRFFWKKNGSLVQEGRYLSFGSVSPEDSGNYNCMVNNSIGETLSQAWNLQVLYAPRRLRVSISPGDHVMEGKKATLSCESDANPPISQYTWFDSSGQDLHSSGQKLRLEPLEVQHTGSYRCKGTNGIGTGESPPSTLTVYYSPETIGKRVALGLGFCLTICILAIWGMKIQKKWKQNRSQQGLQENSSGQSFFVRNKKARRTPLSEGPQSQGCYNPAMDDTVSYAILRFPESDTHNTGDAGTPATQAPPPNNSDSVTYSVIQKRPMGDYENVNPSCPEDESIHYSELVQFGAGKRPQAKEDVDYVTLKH

IC50 (mCD22d1–3-Fc) [µM] | IC50 (hCD22d1–3-Fc) [µM] | IC50 (mSnd1–3-Fc) [µM] | SMILES | flow cytometry, inhibition of NeuGc2,6-PAA-bio probe staining [1] | flow cytometry, inhibition of NeuGc2,6-PAA-bio probe staining [2]
1220 | 4 | 52 | CO[C@]1(C(=O)O)C[C@H](O)[C@@H](NC(C)=O)[C@H]([C@H](O)[C@H](O)CNC(=O)c2ccc(-c3ccccc3)cc2)O1 [BPC-Neu5Ac, Methyl-a-9-N-(biphenyl-4-carbonyl)-amino-9-deoxy-Neu5Ac] | Pretreatment with BPC-Neu5Ac was most potent in inhibiting the binding of the synthetic CD22 ligand | –
– | – | – | CO[C@]1(C(=O)O)C[C@H](O)[C@@H](NC(C)=O)[C@H]([C@H](O)[C@H](O)CNC(=O)Cc2ccc(-c3ccccc3)cc2)O1 [BPAc-Neu5Ac, Methyl-a-9-N-(biphenyl-4-acetyl)-amino-9-deoxy-Neu5Ac] | – | performed on mouse B cells, BPAc-Neu5Ac was the more potent inhibitor
